Assay results reported in paper PMC6704710, “Preclinical evaluation of 3D185, a novel potent inhibitor of FGFR1/2/3 and CSF-1R, in FGFR-dependent and macrophage-dominant cancer models” (Journal of Experimental & Clinical Cancer Research : CR, 2019).

Assays:
Assay in all cases: Eurofins kinase panel
Type in all cases: biochemical
Conditions in all cases: read-out: Inhibition rate (%)
[1] = target: T1, PKCβI(h) (Homo sapiens, UniProt P05771)
T1 construct: purchased Eurofins (KinaseProfiler)

[2] = target: T2, TLK1(h) (Homo sapiens, UniProt Q9UKI8)
T2 construct: purchased Eurofins (KinaseProfiler)
T2 sequence (Q9UKI8 1-766): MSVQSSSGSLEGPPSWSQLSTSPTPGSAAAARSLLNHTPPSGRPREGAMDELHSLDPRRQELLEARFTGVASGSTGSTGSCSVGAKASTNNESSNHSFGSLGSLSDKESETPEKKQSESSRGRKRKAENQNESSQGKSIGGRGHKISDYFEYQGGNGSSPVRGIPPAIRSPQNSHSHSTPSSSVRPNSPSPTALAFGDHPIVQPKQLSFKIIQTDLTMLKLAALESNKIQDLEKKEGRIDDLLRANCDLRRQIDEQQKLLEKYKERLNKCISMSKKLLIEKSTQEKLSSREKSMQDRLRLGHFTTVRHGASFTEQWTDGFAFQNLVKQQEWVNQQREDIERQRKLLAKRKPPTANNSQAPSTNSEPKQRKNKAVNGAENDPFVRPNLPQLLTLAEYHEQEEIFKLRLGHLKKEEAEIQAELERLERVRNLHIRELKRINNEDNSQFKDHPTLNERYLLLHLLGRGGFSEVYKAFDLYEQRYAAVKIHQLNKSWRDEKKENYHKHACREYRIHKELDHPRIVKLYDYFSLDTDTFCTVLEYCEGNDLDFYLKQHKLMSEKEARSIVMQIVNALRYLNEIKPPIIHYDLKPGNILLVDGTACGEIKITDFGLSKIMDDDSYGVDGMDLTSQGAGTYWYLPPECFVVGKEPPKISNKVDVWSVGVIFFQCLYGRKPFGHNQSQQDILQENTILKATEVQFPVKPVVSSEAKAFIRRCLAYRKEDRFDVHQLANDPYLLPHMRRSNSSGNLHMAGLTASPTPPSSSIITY

[3] = target: T3, PKA(h) (Homo sapiens, UniProt P17612)
T3 construct: purchased Eurofins (KinaseProfiler)

[4] = target: T4, B-Raf(h) (Homo sapiens, UniProt P15056)
T4 construct: purchased Eurofins (KinaseProfiler)

[5] = target: T5, LTK(h) (Homo sapiens, UniProt P29376)
T5 construct: purchased Eurofins (KinaseProfiler)

[6] = target: T6, KDR(h) (Homo sapiens, UniProt P35968)
T6 construct: purchased Eurofins (KinaseProfiler)

[7] = target: T7, PAK4(h) (Homo sapiens, UniProt O96013)
T7 construct: purchased Eurofins (KinaseProfiler)

[8] = target: T8, GCN2(h) (Homo sapiens, UniProt Q9P2K8)
T8 construct: purchased Eurofins (KinaseProfiler)

[9] = target: T9, Fes(h) (Homo sapiens, UniProt P07332)
T9 construct: purchased Eurofins (KinaseProfiler)

[10] = target: T10, PIP4K2α(h) (Homo sapiens, UniProt P48426)
T10 construct: purchased Eurofins (KinaseProfiler)
T10 sequence (P48426 1-406): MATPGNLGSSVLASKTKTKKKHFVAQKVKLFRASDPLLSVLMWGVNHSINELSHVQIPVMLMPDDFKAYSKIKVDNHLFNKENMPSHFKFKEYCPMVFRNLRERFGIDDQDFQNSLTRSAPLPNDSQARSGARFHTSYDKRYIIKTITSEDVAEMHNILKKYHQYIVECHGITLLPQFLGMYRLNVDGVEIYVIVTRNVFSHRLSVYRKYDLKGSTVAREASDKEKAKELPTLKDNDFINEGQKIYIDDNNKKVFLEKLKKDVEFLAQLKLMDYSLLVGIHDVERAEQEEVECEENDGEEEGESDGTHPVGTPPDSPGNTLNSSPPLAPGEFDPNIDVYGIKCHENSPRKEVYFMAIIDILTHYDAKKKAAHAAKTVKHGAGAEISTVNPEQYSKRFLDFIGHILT

[11] = target: T11, PI3 Kinase (p120γ)(h) (Homo sapiens, UniProt P48736)
T11 construct: purchased Eurofins (KinaseProfiler)

[12] = target: T12, MRCKα(h) (Homo sapiens, UniProt Q5VT25)
T12 construct: purchased Eurofins (KinaseProfiler)

[13] = target: T13, ALK6(h) (Homo sapiens, UniProt O00238)
T13 construct: purchased Eurofins (KinaseProfiler)
T13 sequence (O00238 14-502): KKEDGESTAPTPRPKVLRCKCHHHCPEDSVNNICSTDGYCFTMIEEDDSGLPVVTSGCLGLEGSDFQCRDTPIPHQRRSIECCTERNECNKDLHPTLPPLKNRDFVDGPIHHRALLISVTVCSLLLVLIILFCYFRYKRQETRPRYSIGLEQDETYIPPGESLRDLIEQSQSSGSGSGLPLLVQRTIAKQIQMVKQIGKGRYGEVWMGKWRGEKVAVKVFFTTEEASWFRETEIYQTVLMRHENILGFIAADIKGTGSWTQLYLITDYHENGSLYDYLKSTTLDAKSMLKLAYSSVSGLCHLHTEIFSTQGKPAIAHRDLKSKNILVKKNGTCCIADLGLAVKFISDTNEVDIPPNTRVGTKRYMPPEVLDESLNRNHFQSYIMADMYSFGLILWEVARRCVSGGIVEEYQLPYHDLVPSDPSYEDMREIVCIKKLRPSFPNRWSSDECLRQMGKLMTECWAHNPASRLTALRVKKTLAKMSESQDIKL

T7 sequence (O96013 whole entry): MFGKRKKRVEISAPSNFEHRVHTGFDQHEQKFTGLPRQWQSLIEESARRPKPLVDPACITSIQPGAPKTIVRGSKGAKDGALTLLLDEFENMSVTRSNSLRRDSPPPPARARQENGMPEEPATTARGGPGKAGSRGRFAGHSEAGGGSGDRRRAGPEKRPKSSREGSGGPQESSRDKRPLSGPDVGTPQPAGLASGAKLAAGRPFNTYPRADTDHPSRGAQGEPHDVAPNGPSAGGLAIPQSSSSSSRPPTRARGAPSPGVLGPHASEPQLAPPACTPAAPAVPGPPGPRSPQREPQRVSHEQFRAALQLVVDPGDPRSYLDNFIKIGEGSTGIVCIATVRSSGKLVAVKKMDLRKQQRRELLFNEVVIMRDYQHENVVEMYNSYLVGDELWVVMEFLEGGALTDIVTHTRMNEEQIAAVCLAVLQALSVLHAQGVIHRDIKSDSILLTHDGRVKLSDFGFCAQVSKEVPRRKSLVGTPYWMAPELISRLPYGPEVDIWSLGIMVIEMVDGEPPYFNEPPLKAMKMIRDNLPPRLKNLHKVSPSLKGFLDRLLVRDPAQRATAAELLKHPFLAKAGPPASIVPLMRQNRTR
T8 sequence (Q9P2K8 whole entry): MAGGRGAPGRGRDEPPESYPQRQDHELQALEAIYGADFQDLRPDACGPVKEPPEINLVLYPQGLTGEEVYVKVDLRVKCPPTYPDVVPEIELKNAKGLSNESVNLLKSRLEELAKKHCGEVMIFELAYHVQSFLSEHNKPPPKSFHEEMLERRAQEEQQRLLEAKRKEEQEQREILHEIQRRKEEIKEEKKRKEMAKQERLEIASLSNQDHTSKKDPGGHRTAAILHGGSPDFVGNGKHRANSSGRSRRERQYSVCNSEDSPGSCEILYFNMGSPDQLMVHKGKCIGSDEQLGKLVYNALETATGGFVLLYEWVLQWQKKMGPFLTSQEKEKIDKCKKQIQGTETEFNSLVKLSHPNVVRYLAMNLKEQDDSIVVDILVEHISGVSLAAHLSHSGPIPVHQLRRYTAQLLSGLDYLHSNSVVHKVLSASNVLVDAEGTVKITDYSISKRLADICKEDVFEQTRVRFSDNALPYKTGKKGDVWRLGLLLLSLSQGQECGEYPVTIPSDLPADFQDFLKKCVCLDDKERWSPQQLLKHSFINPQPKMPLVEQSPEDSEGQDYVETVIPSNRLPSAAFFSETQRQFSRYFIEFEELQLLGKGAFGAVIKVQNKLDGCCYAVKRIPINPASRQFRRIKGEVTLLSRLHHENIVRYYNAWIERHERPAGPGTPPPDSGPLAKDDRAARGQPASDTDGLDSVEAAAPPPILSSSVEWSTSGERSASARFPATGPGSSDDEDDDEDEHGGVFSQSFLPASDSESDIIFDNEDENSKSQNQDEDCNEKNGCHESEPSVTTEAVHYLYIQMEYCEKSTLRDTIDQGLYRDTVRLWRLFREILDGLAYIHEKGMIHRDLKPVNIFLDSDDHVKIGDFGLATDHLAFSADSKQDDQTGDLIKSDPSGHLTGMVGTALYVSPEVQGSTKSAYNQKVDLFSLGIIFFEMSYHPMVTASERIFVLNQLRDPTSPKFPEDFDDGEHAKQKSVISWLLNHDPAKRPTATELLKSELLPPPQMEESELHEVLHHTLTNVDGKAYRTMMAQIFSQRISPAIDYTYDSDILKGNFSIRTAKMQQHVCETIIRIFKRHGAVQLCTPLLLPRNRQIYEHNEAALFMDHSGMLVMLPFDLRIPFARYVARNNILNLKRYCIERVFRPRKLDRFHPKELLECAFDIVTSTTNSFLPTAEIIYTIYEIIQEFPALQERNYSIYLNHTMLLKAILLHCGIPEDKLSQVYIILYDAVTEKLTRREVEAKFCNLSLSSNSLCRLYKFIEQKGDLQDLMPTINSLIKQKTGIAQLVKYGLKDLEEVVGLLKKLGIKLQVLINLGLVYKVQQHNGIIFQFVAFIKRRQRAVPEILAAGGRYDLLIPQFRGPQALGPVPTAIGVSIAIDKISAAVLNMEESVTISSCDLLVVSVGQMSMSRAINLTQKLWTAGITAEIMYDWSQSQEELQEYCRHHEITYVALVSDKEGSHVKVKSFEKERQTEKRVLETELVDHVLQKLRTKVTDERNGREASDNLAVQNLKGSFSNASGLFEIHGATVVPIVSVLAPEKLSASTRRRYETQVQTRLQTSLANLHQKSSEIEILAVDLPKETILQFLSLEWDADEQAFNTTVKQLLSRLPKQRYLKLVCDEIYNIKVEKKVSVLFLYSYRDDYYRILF
T1 sequence (P05771 whole entry): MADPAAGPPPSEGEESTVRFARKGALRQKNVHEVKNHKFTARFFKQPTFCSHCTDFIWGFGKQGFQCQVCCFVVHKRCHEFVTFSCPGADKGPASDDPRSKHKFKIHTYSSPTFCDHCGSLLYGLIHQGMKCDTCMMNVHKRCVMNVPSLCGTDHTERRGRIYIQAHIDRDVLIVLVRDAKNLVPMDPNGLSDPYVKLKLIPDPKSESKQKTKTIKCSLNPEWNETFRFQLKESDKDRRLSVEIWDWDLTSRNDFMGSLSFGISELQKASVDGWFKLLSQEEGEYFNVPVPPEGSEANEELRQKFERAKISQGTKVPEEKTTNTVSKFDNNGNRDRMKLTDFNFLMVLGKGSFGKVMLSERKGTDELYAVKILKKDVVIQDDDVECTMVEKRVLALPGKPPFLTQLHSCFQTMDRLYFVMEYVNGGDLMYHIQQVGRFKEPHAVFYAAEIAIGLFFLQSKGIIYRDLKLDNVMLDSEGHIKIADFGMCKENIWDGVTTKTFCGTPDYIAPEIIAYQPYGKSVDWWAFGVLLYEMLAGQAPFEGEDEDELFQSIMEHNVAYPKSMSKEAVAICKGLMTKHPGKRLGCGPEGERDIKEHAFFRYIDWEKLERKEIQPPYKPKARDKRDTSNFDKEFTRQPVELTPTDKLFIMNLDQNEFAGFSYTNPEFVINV
T5 sequence (P29376 17-864): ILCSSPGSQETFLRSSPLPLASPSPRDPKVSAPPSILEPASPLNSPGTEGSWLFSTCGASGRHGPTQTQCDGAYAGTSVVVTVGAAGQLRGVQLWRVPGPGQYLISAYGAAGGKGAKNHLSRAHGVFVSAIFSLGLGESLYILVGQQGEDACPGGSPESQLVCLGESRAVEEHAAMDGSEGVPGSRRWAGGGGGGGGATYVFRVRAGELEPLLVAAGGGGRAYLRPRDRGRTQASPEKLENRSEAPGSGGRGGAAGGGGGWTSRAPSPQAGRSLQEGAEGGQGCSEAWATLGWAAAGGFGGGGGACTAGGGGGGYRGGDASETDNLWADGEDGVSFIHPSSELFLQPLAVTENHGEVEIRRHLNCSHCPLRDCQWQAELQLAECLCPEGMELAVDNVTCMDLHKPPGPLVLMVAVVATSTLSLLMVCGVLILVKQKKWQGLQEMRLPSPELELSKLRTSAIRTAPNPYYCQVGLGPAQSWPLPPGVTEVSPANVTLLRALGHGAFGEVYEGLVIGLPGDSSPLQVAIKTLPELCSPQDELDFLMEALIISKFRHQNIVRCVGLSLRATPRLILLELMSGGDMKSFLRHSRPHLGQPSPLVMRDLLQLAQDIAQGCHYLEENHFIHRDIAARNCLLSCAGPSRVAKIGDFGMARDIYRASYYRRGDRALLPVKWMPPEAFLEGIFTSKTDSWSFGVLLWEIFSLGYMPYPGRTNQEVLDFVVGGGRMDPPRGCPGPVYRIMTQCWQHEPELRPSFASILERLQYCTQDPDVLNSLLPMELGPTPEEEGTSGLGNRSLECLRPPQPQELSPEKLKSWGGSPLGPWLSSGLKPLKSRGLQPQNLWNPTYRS
T4 sequence (P15056 whole entry): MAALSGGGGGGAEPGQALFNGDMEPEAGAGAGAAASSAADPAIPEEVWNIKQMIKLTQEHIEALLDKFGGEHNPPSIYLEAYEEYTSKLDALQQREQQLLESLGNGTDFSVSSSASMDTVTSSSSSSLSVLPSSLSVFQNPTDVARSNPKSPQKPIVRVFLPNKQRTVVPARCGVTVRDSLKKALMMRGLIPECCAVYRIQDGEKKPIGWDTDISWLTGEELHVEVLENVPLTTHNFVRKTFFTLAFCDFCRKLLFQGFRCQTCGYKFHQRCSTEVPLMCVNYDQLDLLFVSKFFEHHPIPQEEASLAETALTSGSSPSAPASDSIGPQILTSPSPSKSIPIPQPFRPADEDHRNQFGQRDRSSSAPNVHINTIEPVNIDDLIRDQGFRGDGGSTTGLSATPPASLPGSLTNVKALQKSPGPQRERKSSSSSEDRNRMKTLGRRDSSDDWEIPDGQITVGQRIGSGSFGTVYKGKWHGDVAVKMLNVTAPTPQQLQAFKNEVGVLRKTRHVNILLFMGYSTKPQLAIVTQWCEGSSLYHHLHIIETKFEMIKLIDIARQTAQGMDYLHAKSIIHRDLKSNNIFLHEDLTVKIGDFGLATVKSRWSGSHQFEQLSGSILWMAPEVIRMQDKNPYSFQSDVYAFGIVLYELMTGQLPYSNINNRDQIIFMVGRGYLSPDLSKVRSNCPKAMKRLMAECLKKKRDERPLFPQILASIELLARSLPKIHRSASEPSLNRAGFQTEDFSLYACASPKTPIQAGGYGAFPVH

COc1cc(OC)c(Cl)c(-c2ccc3c(NC(=O)c4ccc(N5CCNC(C)(C)C5)cc4)n[nH]c3n2)c1Cl [3D185]
inhibition at 0.01 µM ([1]; 10 nM): -7%
inhibition at 0.1 µM ([1]; 100 nM): -3%
inhibition at 1 µM ([1]; 1000 nM): -1%
inhibition at 0.01 µM ([2]; 10 nM): -1%
inhibition at 0.1 µM ([2]; 100 nM): -4%
inhibition at 1 µM ([2]; 1000 nM): -8%
inhibition at 0.01 µM ([3]; 10 nM): 5%
inhibition at 0.1 µM ([3]; 100 nM): -8%
inhibition at 1 µM ([3]; 1000 nM): 5%
inhibition at 0.01 µM ([4]; 10 nM): -4%
inhibition at 0.1 µM ([4]; 100 nM): -5%
inhibition at 1 µM ([4]; 1000 nM): 5%
inhibition at 0.01 µM ([5]; 10 nM): -8%
inhibition at 0.1 µM ([5]; 100 nM): 1%
inhibition at 1 µM ([5]; 1000 nM): 37%
inhibition at 0.01 µM ([6]; 10 nM): -2%
inhibition at 0.1 µM ([6]; 100 nM): 1%
inhibition at 1 µM ([6]; 1000 nM): 10%
inhibition at 0.01 µM ([7]; 10 nM): -8%
inhibition at 0.1 µM ([7]; 100 nM): 0%
inhibition at 1 µM ([7]; 1000 nM): -2%
inhibition at 0.01 µM ([8]; 10 nM): 3%
inhibition at 0.1 µM ([8]; 100 nM): -12%
inhibition at 1 µM ([8]; 1000 nM): -49%
inhibition at 0.01 µM ([9]; 10 nM): -8%
inhibition at 0.1 µM ([9]; 100 nM): 36%
inhibition at 1 µM ([9]; 1000 nM): 91%
inhibition at 0.01 µM ([10]; 10 nM): 1%
inhibition at 0.1 µM ([10]; 100 nM): -2%
inhibition at 1 µM ([10]; 1000 nM): 4%
inhibition at 0.01 µM ([11]; 10 nM): 0%
inhibition at 0.1 µM ([11]; 100 nM): 1%
inhibition at 1 µM ([11]; 1000 nM): 3%
inhibition at 0.01 µM ([12]; 10 nM): 12%
inhibition at 0.1 µM ([12]; 100 nM): 16%
inhibition at 1 µM ([12]; 1000 nM): 14%
inhibition at 0.01 µM ([13]; 10 nM): 3%
inhibition at 0.1 µM ([13]; 100 nM): -11%
inhibition at 1 µM ([13]; 1000 nM): -5%
